These results are taken from publication PMC9280689, “Resistance to Powdery Mildew in Qingke Involves the Accumulation of Aromatic Phenolamides Through Jasmonate-Mediated Activation of Defense-Related Genes” (Frontiers in Plant Science, 2022).

This test deals with T1, HvTBT2 (Hordeum vulgare, UniProt A0A8I6X4Z6).
T1 construct: gene LOC123447140; full-length cDNA in pGEX-6p-1, GST fusion, E. coli BL21(DE3), purified
As to the kind of experiment: LC-MS product assay. Format: biochemical. As to conditions: acyl donor; amine acceptor 100 μM (which amine not told); 10 mM MgCl2, Tris-HCl pH 7.4, 30 °C. An excerpt: LC-MS product assay on HvTBT2

T1 sequence (A0A8I6X4Z6 entry or part of it): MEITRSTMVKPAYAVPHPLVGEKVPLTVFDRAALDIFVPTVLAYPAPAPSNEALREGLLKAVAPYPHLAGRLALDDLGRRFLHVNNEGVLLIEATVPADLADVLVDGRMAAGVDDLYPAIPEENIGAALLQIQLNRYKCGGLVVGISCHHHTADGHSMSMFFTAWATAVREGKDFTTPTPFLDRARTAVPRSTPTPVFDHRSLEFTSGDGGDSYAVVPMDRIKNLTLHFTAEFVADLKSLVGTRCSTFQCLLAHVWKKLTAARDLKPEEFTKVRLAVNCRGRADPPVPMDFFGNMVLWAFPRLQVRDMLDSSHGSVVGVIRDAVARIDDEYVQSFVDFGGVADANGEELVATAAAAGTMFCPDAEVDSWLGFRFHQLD

With `COc1cc(/C=C/C(=O)SCCNC(=O)CCNC(=O)[C@H](O)C(C)(C)COP(=O)(O)OP(=O)(O)OC[C@H]2O[C@@H](n3cnc4c(N)ncnc43)[C@H](O)[C@@H]2OP(=O)(O)O)ccc1O` [Feruloyl-CoA], the Km is 382 ± 98.3 µM.

The term Km denotes the concentration of substrate that gives half-maximal velocity.
